Earlier results in patent publication US20010049447A1, “Mibefradil analogues and their use” (priority 2000, published 2001).

System: fructose fed rats

COCC(=O)O[C@]1(CCN(C)CCCc2nc3ccccc3[nH]2)CCc2cc(F)ccc2[C@@H]1C(C)C.Cl.Cl [mibefradil, Methoxyacetic acid 2(S)-[2-[N-[3-(2-benzimidazolyl)propyl]-N-methylamino]ethyl]-6-fluoro-1(S)-isopropyl-1,2,3,4-tetrahydro-2-naphthyl ester dihydrochloride]
blood pressure: decrease
hyperinsulinemia: decrease
